The structures appear in SMILES notation.

Broadly, the Emax is the greatest response seen or fitted, relative to the assay's reference. The term EC50 denotes the concentration giving half of the maximal effect.

This assay deals with T1, Kv7.2 (Homo sapiens, UniProt O43526).
T1 construct: expressed in transfected cells
Briefly: Activation of Kv7.2 (in vitro assay, concentration response curve). Type of assay: cell-based. The note with it: for Emax: Kv7.2 activation max %; for EC50: activation of Kv7.2. Put shortly: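 Agonist activity was measured in vitro across a range of compound concentrations and plotted as a sigmoidal concentration–response curve. EC50 is the concentration giving 50% of that compound's own maximal response (Emax).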

`O=C(Nc1cccc(Cl)c1)NC(CO)c1ccnc(OCC(F)F)c1` (stereo not shown) [Example 259, 1-(3-chlorophenyl)-3-[1-[2-(2,2-difluoroethoxy)pyridin-4-yl]-2-hydroxyethyl]urea] had an Emax of 63% and an EC50 of 240 nM.
As for `O=C(NCc1ccnc(SC(F)F)c1)N[C@H]1C[C@H](C(F)(F)F)C1` [Example 260, 1-[[2-(difluoro-methylsulfanyl)pyridin-4-yl]methyl]-3-[(1r,3r)-3-(trifluoromethyl)cyclobutyl]urea], the Emax was determined as 51% and it took 370 nM to reach a half-maximal effect (EC50).
`Cc1cc(NC(=O)NCc2ccnc(OC(F)F)c2)ccc1F` [Example 261, 1-[[2-(difluoromethoxy)pyridin-4-yl]methyl]-3-(4-fluoro-3-methylphenyl)urea] gave an Emax of 40% and an EC50 of 70 nM.
The matching figures for `O=C(NCc1ccnc(OC(F)F)c1)Nc1cccc(OC(F)F)c1` [Example 262, 1-[3-(difluoromethoxy)phenyl]-3-[[2-(difluoromethoxy)pyridin-4-yl]methyl]urea]: 65% and 3510 nM.
`O=C(NCc1ccnc(OC(F)F)c1)NC1CCC(OC(F)F)C1` (stereo not shown) [Example 264, 1-[3-(difluoromethoxy)cyclopentyl]-3-[[2-(difluoromethoxy)pyridin-4-yl]methyl]urea] yielded an Emax of 49% and an EC50 of 430 nM.
Take `O=C(NCc1ccnc(OC(F)F)c1)N[C@H]1C[C@@H](OC(F)F)C1` [Example 265, 1-[(1s,3s)-3-(difluoromethoxy)cyclobutyl]-3-[[2-(difluoromethoxy)pyridin-4-yl]methyl]urea]: the Emax is 47% and the EC50 stood at 470 nM.
With `O=C(NCc1ccnc(OC(F)F)c1)N[C@H]1CC[C@H](OC(F)F)CC1` [Example 266, 1-[(1r,4r)-4-(difluoromethoxy)cyclohexyl]-3-[[2-(difluoromethoxy)pyridin-4-yl]methyl]urea], the Emax was found to be 49% and the midpoint of the response, the EC50, lay at 300 nM.
Consider `O=C(NCc1ccnc(OC(F)F)c1)NC1CC(OC(F)(F)F)C1` (stereo not shown) [Example 267, 1-[[2-(difluoromethoxy)pyridin-4-yl]methyl]-3-[3-(trifluoromethoxy)cyclobutyl]urea], for which the Emax amounted to 51% and the EC50 amounted to 290 nM.
As for `CC(CNC(=O)NCc1ccnc(OC(F)F)c1)OC(F)F` (stereo not shown) [Example 268, 1-[2-(difluoromethoxy)propyl]-3-[[2-(difluoromethoxy)pyridin-4-yl]methyl]urea], the Emax came to 39% and the EC50 came to 1880 nM.
In the case of `O=C(NCc1ccnc(OCC(F)(F)F)c1)N[C@H]1C[C@@H](F)C1` [Example 269, 1-((1s,3s)-3-fluorocyclobutyl)-3-[[2-(2,2,2-trifluoroethoxy)pyridin-4-yl]methyl]urea], the Emax stood at 46% and the midpoint of the response, the EC50, lay at 350 nM.
The corresponding values for `O=C(Nc1cccc(Cl)c1F)NC(CO)c1ccnc(OC(F)F)c1` (stereo not shown) [Example 270, 1-(3-chloro-2-fluorophenyl)-3-[1-[2-(difluoromethoxy)pyridin-4-yl]-2-hydroxyethyl]urea] are 65% and 170 nM.
Turning to `O=C(NCc1ccnc(OC(F)F)c1)N[C@H]1[C@@H]2CC(F)(F)C[C@@H]21` [Example 271, 1-[[2-(difluoromethoxy)pyridin-4-yl]methyl]-3-[rac-(1R,5S,6R)-3,3-difluoro-6-bicyclo[3.1.0]hexanyl]urea], the Emax was found to be 42% and it took 340 nM to reach a half-maximal effect (EC50).
In the case of `O=C(NCc1ccnc(OC(F)F)c1)Nc1ccc(F)c(F)c1F` [Example 272, 1-[[2-(difluoromethoxy)pyridin-4-yl]methyl]-3-(2,3,4-trifluorophenyl)urea], the Emax is 44% and the EC50 was 910 nM.
The corresponding values for `O=C(NCc1ccnc(OC(F)F)c1)N[C@@H](CC(F)(F)F)C(F)(F)F` [Example 273, 1-[[2-(difluoromethoxy)pyridin-4-yl]methyl]-3-[(2S)-1,1,1,4,4,4-hexafluorobutan-2-yl]urea] are 48% and 890 nM.
`O=C(NCc1ccnc(CC(F)(F)F)c1)Nc1ccc(F)c(F)c1` [Example 274, 1-(3,4-difluorophenyl)-3-[[2-(2,2,2-trifluoroethyl)pyridin-4-yl]methyl]urea]: the Emax came to 48% and the EC50 came to 360 nM.
For the molecule `O=C(NCc1ccnc(CC(F)(F)F)c1)Nc1cccc(Cl)c1` [Example 275, 1-(3-chlorophenyl)-3-[[2-(2,2,2-trifluoroethyl)pyridin-4-yl]methyl]urea], the Emax turned out to be 59% and it took 550 nM to reach a half-maximal effect (EC50).
Regarding `O=C(NCc1cc(OC(F)F)ncc1F)N[C@H]1C[C@H](C(F)(F)F)C1` [Example 277, 1-[[2-(difluoromethoxy)-5-fluoropyridin-4-yl]methyl]-3-[(1r,3r)-3-(trifluoromethyl)cyclobutyl]urea], the Emax is 58% and a half-maximal effect (EC50) was put at 330 nM.
`O=C(NCc1cc(OCC(F)(F)F)ncn1)N[C@H]1C[C@H](C(F)(F)F)C1` [Example 279, 1-[[6-(2,2,2-trifluoroethoxy)pyrimidin-4-yl]methyl]-3-[(1r,3r)-3-(trifluoromethyl)cyclobutyl]urea] had an Emax of 75% and an EC50 of 170 nM.
As to `Cc1cccc(NC(=O)NC(CO)c2ccnc(OC(F)F)c2)c1` (stereo not shown) [Example 280, 1-[1-[2-(difluoromethoxy)pyridin-4-yl]-2-hydroxyethyl]-3-(3-methylphenyl)urea], the Emax amounted to 67% and the EC50 is 250 nM.
Molecule `COCC(Oc1cc(CNC(=O)N[C@H]2C[C@H](C(F)(F)F)C2)ccn1)C(F)(F)F` (stereo partly shown) [Example 281, 1-[[2-(1,1,1-trifluoro-3-methoxypropan-2-yl)oxypyridin-4-yl]methyl]-3-[3-(trifluoromethyl)cyclobutyl]urea] returned an Emax of 59% and an EC50 of 200 nM.
Molecule `O=C(NCc1cc(OC(F)F)ncn1)N[C@H]1C[C@H](C(F)(F)F)C1` [Example 282, 1-[[6-(difluoromethoxy)pyrimidin-4-yl]methyl]-3-[(1r,3r)-3-(trifluoromethyl)cyclobutyl]urea] yielded an Emax of 78% and an EC50 of 90 nM.
Molecule `O=C(NC(CO)c1ccnc(OCC(F)(F)F)c1)NC12CC(F)(C1)C2` (stereo not shown) [Example 283, 1-(3-fluoro-1-bicyclo[1.1.1]pentanyl)-3-[2-hydroxy-1-[2-(2,2,2-trifluoroethoxy)pyridin-4-yl]ethyl]urea] yielded an Emax of 68% and a 50% effective concentration (EC50) of 490 nM.
Turning to `O=C(NCc1ccnc(OCC(F)(F)F)c1)NCC1(C(F)(F)F)CC1` [Example 284, 1-[[2-(2,2,2-trifluoroethoxy)pyridin-4-yl]methyl]-3-[[1-(trifluoromethyl)cyclopropyl]methyl]urea], the Emax was 82% and the EC50 was determined as 990 nM.
Take `O=C(NCc1ccnc(OCC(F)(F)F)c1)NC(C(F)(F)F)C(F)(F)F` [Example 285, 1-(1,1,1,3,3,3-hexafluoropropan-2-yl)-3-[[2-(2,2,2-trifluoroethoxy)pyridin-4-yl]methyl]urea]: the Emax worked out at 87% and the EC50 worked out at 380 nM.
Molecule `C[C@@H](O)C(NC(=O)N[C@H]1C[C@H](C(F)(F)F)C1)c1ccnc(OC(F)F)c1` (stereo partly drawn) [Example 286, 1-[(2R)-1-[2-(difluoromethoxy)pyridin-4-yl]-2-hydroxypropyl]-3-[(1r,3r)-3-(trifluoromethyl)cyclobutyl]urea] came in with an Emax of 66% and an EC50 of 550 nM.
On to `C[C@H](O)C(NC(=O)N[C@H]1C[C@H](C(F)(F)F)C1)c1ccnc(OC(F)F)c1` (stereo partly drawn) [Example 287, 1-[(2S)-1-[2-(difluoromethoxy)pyridin-4-yl]-2-hydroxypropyl]-3-[(1r,3r)-3-(trifluoromethyl)cyclobutyl]urea], for which the Emax came to 96% and the EC50 is 740 nM.
As to `O=C(NCc1ccnc(OC(F)F)c1)N[C@@H]1CC[C@H](OC(F)(F)F)C1` [Example 288, 1-[[2-(difluoromethoxy)pyridin-4-yl]methyl]-3-[(1R,3S)-3-(trifluoromethoxy)cyclopentyl]urea], the Emax was 68% and the EC50 turned out to be 250 nM.
With `O=C(NCc1ccnc(OC(F)F)c1)NCC(O)C12CC(F)(C1)C2` (stereo not shown) [Example 289, 1-[[2-(difluoromethoxy)pyridin-4-yl]methyl]-3-[2-(3-fluoro-1-bicyclo[1.1.1]pentanyl)-2-hydroxyethyl]urea], the Emax was determined as 40% and the EC50 was 980 nM.
With `O=C(NCc1ccnc(OCC(F)(F)F)c1)NCC(O)C12CC(F)(C1)C2` (stereo not shown) [Example 290, 1-[2-(3-fluoro-1-bicyclo[1.1.1]pentanyl)-2-hydroxyethyl]-3-[[2-(2,2,2-trifluoroethoxy)pyridin-4-yl]methyl]urea], the Emax is 81% and the response was half-maximal at 890 nM (EC50).
`O=C(NCc1ccnc(OC(F)F)c1)NCC(O)C12CC(C1)C2` (stereo not shown) [Example 291, 1-[2-(1-bicyclo[1.1.1]pentanyl)-2-hydroxyethyl]-3-[[2-(difluoromethoxy)pyridin-4-yl]methyl]urea] came in with an Emax of 64% and an EC50 of 460 nM.
In turn, `O=C(NCc1ccnc(OCC(F)(F)F)c1)NCC(O)C12CC(C1)C2` (stereo not shown) [Example 292, 1-[2-(1-bicyclo[1.1.1]pentanyl)-2-hydroxyethyl]-3-[[2-(2,2,2-trifluoroethoxy)pyridin-4-yl]methyl]urea] showed an Emax of 62% and an EC50 of 620 nM.
As for `O=C(NCc1ccnc(OCC(F)(F)F)c1)N[C@H]1C[C@H](C(F)F)C1` [Example 293, 1-[(1r,3r)-3-(difluoromethyl)cyclobutyl]-3-[[2-(2,2,2-trifluoroethoxy)pyridin-4-yl]methyl]urea], the Emax is 93% and the concentration for a half-maximal effect (EC50) was 610 nM.

The values above are taken from patent US20250074901A1, “NOVEL HETEROARYL COMPOUNDS” (ICAGEN, LLC, priority 2021, published 2025).
